Source: patent publication US9492422B2, “Therapeutic or prophylactic agent for diabetes” (Toray Industries, Inc., priority 2009, dated 2016)
Where a name gives a salt, the structure may show the parent alone.

Legend:
Type in all cases: in vivo
[1] = Body weight before and after drug administration in KKAy mice; conditions: male KKAy mice; for Change in body weight compared to the value before drug administration: paired t-test; for Body weight, After administration: at final administration; for Body weight, After administration / Body weight, Before administration: mean ± standard error; for Body weight, Before administration: baseline, day before start of dosing
Source text: (§1) For the experiment, male KKAy mice (CLEA Japan, Inc.) were used. KKAy mice show obesity and high blood glucose from 7 or 8 weeks old, and are commonly used as model mice for type 2 diabetes. The KKAy mice were purchased when they were 5 weeks old, and, from immediately thereafter, fed with CMF feed (Oriental Yeast Co., Ltd.) for 3 weeks under free food/water intake conditions, before being subjected to the experiment. For continuous subcutaneous administration of a solvent (physiological saline, 6 μL/day) or BPS (1 mg/kg/day, commercially available product from Toray Industries, Inc.), a minipump for sustained release (Alzet micro osmotic pump model 1002, Alzet osmotic pumps company) was subcutaneously placed in each KKAy mouse. The continuous administration of physiological saline or BPS was carried out until the end of the experiment. From 3 days after the placement (beginning of the subcutaneous continuous administration), oral administration of a solvent (0.5% methyl cellulose (MC) solution, 10 mL/kg) or pioglitazone hydrochloride (product synthesized in Toray Industries, Inc.) was started. Pioglitazone hydrochloride was administered as a suspension in 0.5% MC solution. The 0.5% MC solution and pioglitazone hydrochloride were administered for 10 days, during which the administration was carried out once per day in the evening. The mice were divided into the following experimental groups: • (1) Control group (n=8): physiological saline (6 μL/day)+0.5% MC solution (10 mL/kg) • (2) BPS group (n=6): BPS (1 mg/kg/day)+0.5% MC solution (10 mL/kg) • (3) Pioglitazone hydrochloride 3 mg group (n=6): physiological saline (6 μL/day)+pioglitazone hydrochloride (3 mg/kg) • (4) BPS/pioglitazone hydrochloride 3 mg-combined-use group (n=6): BPS (1 mg/kg/day)+pioglitazone hydrochloride (3 mg/kg) • (5) Pioglitazone hydrochloride 30 mg group (n=6): physiological saline (6 μL/day)+pioglitazone hydrochloride (30 mg/kg).
(§2) The body weight and the casual blood glucose level were measured on the day before starting of the continuous administration of physiological saline or BPS (these correspond to the data shown in the “Before administration” columns in Tables 1 and 2). The body weight was measured when 0.5% MC solution or pioglitazone hydrochloride was finally administered, and the casual blood glucose level was measured about 18 hours after the final administration (these correspond to the data shown in the “After administration” columns in Tables 1 and 2). The casual blood glucose level was measured by collecting about 5 μL of blood from the tail vein and subjecting the blood to measurement with a simplified blood glucose meter (Medisense Precision Xceed, ABBOTT JAPAN Co., LTD.).

KKAy mice [2] = experiment: Casual blood glucose level before and after drug administration in KKAy mice; conditions: male KKAy mice; for Casual blood glucose level, After administration: about 18 hours after final administration; for Casual blood glucose level, After administration / Casual blood glucose level, Before administration: mean ± standard error; for Casual blood glucose level, Before administration: baseline, day before start of dosing
Source text: as §1, §2

KKAy mice [3] = experiment: Glucose tolerance test after drug administration in KKAy mice; conditions: male KKAy mice; for ΔAUC0-120 (area under the Δblood glucose level-time curve, 0 to 120 minutes): oral glucose 1.5 g/kg after fasting, mean ± standard error, in mg·min/dL (unit assumed)
Experimental: For the experiment, male KKAy mice (CLEA Japan, Inc.) were used. […] Pioglitazone hydrochloride was administered as a suspension in 0.5% MC solution. […] The continuous administration of physiological saline or BPS was carried out until the end of the experiment. The experimental groups were as follows: • (1) Control group (n=6): physiological saline (6 μL/day)+0.5% MC solution (10 mL/kg) • (2) BPS group (n=5): BPS (1 mg/kg/day)+0.5% MC solution (10 mL/kg) • (3) Pioglitazone hydrochloride 3 mg group (n=5): physiological saline (6 μL/day)+pioglitazone hydrochloride (3 mg/kg) • (4) BPS/pioglitazone hydrochloride 3 mg-combined-use group (n=6): BPS (1 mg/kg/day)+pioglitazone hydrochloride (3 mg/kg) • (5) Pioglitazone hydrochloride 30 mg group (n=6): physiological saline (6 μL/day)+pioglitazone hydrochloride (30 mg/kg). […] The increase in the blood glucose level at each timing relative to the blood glucose level observed immediately before the administration of glucose (0 minute) was defined as Δblood glucose level. The length of time (minutes) after the administration of glucose was plotted along the abscissa and Δblood glucose level (mg/dL) was plotted along the ordinate, to calculate the area under the Δblood glucose level-time curve from 0 minute to 120 minutes (ΔAUC0-120).

[4] = BPS 1 mg/kg/day s.c. continuous and/or pioglitazone hydrochloride 3 mg/kg p.o. once daily 10 days
[5] = groups BPS 1 mg/kg/day s.c. continuous and/or pioglitazone hydrochloride 3 mg/kg p.o.
[6] = pioglitazone hydrochloride 30 mg/kg group
[7] = pioglitazone hydrochloride 30 mg/kg p.o. once daily 10 days
[8] = BPS 1 mg/kg/day s.c. continuous and/or pioglitazone hydrochloride 3 mg/kg p.o. once daily 20 days

SMILES | Change in body weight compared to the value before drug administration ([1]; BPS 1 mg/kg/day s.c. and/or pioglitazone hydrochloride 3 mg/kg p.o.) | Body weight, After administration [1, 4] [g] | Body weight, Before administration [1, 5] [g] | Body weight, Before administration [1, 6] [g] | Body weight, After administration [1, 7] [g] | Change in body weight compared to the value before drug administration ([1]; pioglitazone hydrochloride 30 mg/kg p.o.) | Casual blood glucose level, After administration (KKAy mice [2]; [4]) [mg/dL] | Casual blood glucose level, Before administration (KKAy mice [2]; [5]) [mg/dL] | Casual blood glucose level, Before administration (KKAy mice [2]; [6]) [mg/dL] | Casual blood glucose level, After administration (KKAy mice [2]; [7]) [mg/dL] | ΔAUC0-120 (area under the Δblood glucose level-time curve, 0 to 120 minutes) (KKAy mice [3]; [8]) | ΔAUC0-120 (area under the Δblood glucose level-time curve, 0 to 120 minutes) (KKAy mice [3]; pioglitazone hydrochloride 30 mg/kg p.o. once daily 20 days) | Change in casual blood glucose level compared to the value before drug administration (KKAy mice [2]; BPS 1 mg/kg/day s.c. and/or pioglitazone hydrochloride 3 mg/kg p.o., paired t-test) | Change in ΔAUC0-120 compared to the control group (KKAy mice [3]; glucose tolerance test, BPS 1 mg/kg/day s.c. and/or pioglitazone hydrochloride 3 mg/kg p.o.)
CCc1ccc(CCOc2ccc(CC3SC(=O)NC3=O)cc2)nc1 (stereo not shown) [Pioglitazone hydrochloride, pioglitazone hydrochloride] | significant increase | 44.2 ± 1.3 | 41.7 ± 1.2 | 42.6 ± 1.1 | 46.7 ± 1.3 | significant increase | 452.8 ± 53.4 | 450.3 ± 15.4 | 437.7 ± 21.7 | 271.3 ± 16.9 | 23138 ± 4870 | 22461 ± 2157 |  | 
CC#CCC(C)[C@H](O)/C=C/[C@@H]1[C@H]2c3cccc(CCCC(=O)O)c3O[C@H]2C[C@H]1O (mixture of isomers) [BPS, beraprost sodium] |  | 42.3 ± 1.1 | 41.2 ± 0.8 |  |  |  | 392.3 ± 28.9 | 493.0 ± 35.6 |  |  | 18684 ± 3551 |  | no change | no change
